This assay relates to nude mice, LOX melanoma ip, survival T/C. In words: NCI In Vivo Anticancer Drug Screen. Data for tumor model Human Amelanotic Melanoma (LOX) (intraperitoneal) in NU/NU BALB/C (nude) mice. The settings on record: endpoint: median survival time, schedule: Q04DX003 (ip), higher = longer survival. Here is the method: The antitumor activity of compounds was measured in mice bearing transplantable tumors. Survival or tumor size were measured and the results are expressed as the measurement made in the treated group (T) divided by the measurement made in the vehicle treated control group (C). The tumor model used in this assay is Human Amelanotic Melanoma (LOX) (intraperitoneal) in NU/NU BALB/C (nude) mice

[1] abbreviates: dose: 50.0 mg/kg/injection, vehicle: Klucel (hydroxypropylcellulose) (HPC).
Where [2] appears, read: dose: 100.0 mg/kg/injection, vehicle: Klucel (hydroxypropylcellulose) (HPC).
The mark [3] stands for this setting: dose: 200.0 mg/kg/injection, vehicle: Klucel (hydroxypropylcellulose) (HPC).
Setting [4] is: dose: 120.0 mg/kg/injection, vehicle: Klucel (hydroxypropylcellulose) (HPC).

Several values for one entry are separate records, joined by “and”; a condition that tells them apart may be missing. Equal values may be shown once. Toxic doses and inconclusive results are not listed.

As to `CC(C)NC(=O)OCc1c(COC(=O)NC(C)C)c(-c2ccc(Cl)c(Cl)c2)n2c1CCC2`, the T/C was 238 % of control (dose: 75.0 mg/kg/injection, vehicle: saline with Tween-80); 152 % of control (dose: 75.0 mg/kg/injection, vehicle: saline); 324 % of control (dose: 150.0 mg/kg/injection, vehicle: saline with Tween-80); 210 % of control (dose: 150.0 mg/kg/injection, vehicle: saline); 313 % of control (dose: 300.0 mg/kg/injection, vehicle: saline with Tween-80); 178 % of control (dose: 300.0 mg/kg/injection, vehicle: saline). Besides, the T/C reads like this: (dose: 600.0 mg/kg/injection, vehicle: saline) 344 % of control; (dose: 1200.0 mg/kg/injection, vehicle: saline) 344 % of control.

Take `Cc1nc(C(Cl)(Cl)Cl)[nH]c(=O)c1SCCO`: the T/C reads like this: (dose: 75.0 mg/kg/injection, vehicle: distilled water + Tween-80 + alcohol) 102 % of control; (dose: 150.0 mg/kg/injection, vehicle: distilled water + Tween-80 + alcohol) 116 % of control; (dose: 300.0 mg/kg/injection, vehicle: distilled water + Tween-80 + alcohol) 101 % of control; (dose: 600.0 mg/kg/injection, vehicle: distilled water + Tween-80 + alcohol) 117 % of control.

For the molecule `C/C(=N\NC(=S)N1CCN(c2ccccn2)CC1)c1ccccn1`, the T/C (dose: 10.0 mg/kg/injection, vehicle: water) was 89 % of control; the T/C (dose: 20.0 mg/kg/injection, vehicle: water) was 95 % of control; the T/C (dose: 40.0 mg/kg/injection, vehicle: water) is 94 % of control; the T/C (dose: 80.0 mg/kg/injection, vehicle: water) was 97 % of control.

For the molecule `CN(C)CN1C(=O)S/C(=C2\C(=O)N(CN(C)C)c3ccccc32)C1=O`, the T/C is, setting by setting: under setting [1], 119 % of control and 101 % of control; under setting [2], 110 % of control and 97 % of control; under setting [3], 108 % of control and 97 % of control.

On to `CC(=O)c1cccc(NC2C(N)C(NC(=O)N(C)C)(C(C)O)C(C)(O)C2(O)COC(=O)c2c(C)cccc2O)c1` (stereo not drawn), for which the T/C (dose: 12.5 mg/kg/injection, vehicle: suspension in saline) was 173 % of control.

With `COC1C(O)CC(OC2CC(Oc3cc4cc5c(c(O)c4c(O)c3C)C(=O)[C@@H](OC3CC(OC4CC(OC6CC(C)(O)C(OC(C)=O)C(C)O6)C(O)C(C)O4)C(O)C(C)O3)[C@H]([C@H](OC)C(=O)[C@@H](O)[C@@H](C)O)C5)OC(C)C2OC(C)=O)OC1C` (stereo partly drawn), the T/C is, setting by setting: (dose: 0.15 mg/kg/injection, vehicle: Klucel (hydroxypropylcellulose) (HPC)) 116 % of control; (dose: 0.3 mg/kg/injection, vehicle: Klucel (hydroxypropylcellulose) (HPC)) 314 % of control; (dose: 0.6 mg/kg/injection, vehicle: Klucel (hydroxypropylcellulose) (HPC)) 198 % of control.

For the molecule `CC[C@@]1(O)C(=O)OCc2c1cc1n(c2=O)Cc2cc3ccccc3nc2-1`, the T/C (dose: 5.0 mg/kg/injection, vehicle: saline with Tween-80) was 284 % of control.

For `O=S(=O)(O)c1cc(N=C=S)ccc1/C=C/c1ccc(N=C=S)cc1S(=O)(=O)O`, the T/C is 103 % of control (dose: 3.75 mg/kg/injection, vehicle: saline); 104 % of control (dose: 7.5 mg/kg/injection, vehicle: saline); 90 % of control (dose: 15.0 mg/kg/injection, vehicle: saline); 94 % of control (dose: 30.0 mg/kg/injection, vehicle: saline).

Take `O=C1c2c(O)ccc(O)c2C(=O)c2c(NCCNCCO)ccc(NCCNCCO)c21`: the T/C was 168 % of control and 167 % of control (dose: 0.45 mg/kg/injection, vehicle: other); 375 % of control and 187 % of control (dose: 0.75 mg/kg/injection, vehicle: other); 256 % of control and 265 % of control (dose: 1.25 mg/kg/injection, vehicle: other); 218 % of control (dose: 1.25 mg/kg/injection, vehicle: water); 187 % of control (dose: 2.0 mg/kg/injection, vehicle: other); 88 % of control (dose: 2.08 mg/kg/injection, vehicle: other). In addition, the T/C (dose: 2.5 mg/kg/injection, vehicle: water) is 120 % of control.

For the molecule `O=C1C2=C(Nc3cc([N+](=O)[O-])ccc3N2)OC1c1ccccn1` (stereo not drawn), the T/C was 99 % of control (dose: 25.0 mg/kg/injection, vehicle: Klucel (hydroxypropylcellulose) (HPC)); 99 % of control under setting [1]; 110 % of control under setting [2]; 110 % of control under setting [3].

For `Nc1n[nH]c2ccccc12`, the T/C is 107 % of control (dose: 75.0 mg/kg/injection, vehicle: other) and 98 % of control (dose: 150.0 mg/kg/injection, vehicle: other).

Consider `Cc1cc(=NO)cc(C)n1O`, for which the T/C (dose: 75.0 mg/kg/injection, vehicle: distilled water + alcohol) is 101 % of control; the T/C (dose: 150.0 mg/kg/injection, vehicle: distilled water + alcohol) is 103 % of control; the T/C (dose: 300.0 mg/kg/injection, vehicle: distilled water + alcohol) is 101 % of control; the T/C (dose: 600.0 mg/kg/injection, vehicle: distilled water + alcohol) is 96 % of control.

Regarding `COC(=O)c1ccc(N=NN(C)COC(C)=O)cc1`, the T/C is 118 % of control (dose: 30.0 mg/kg/injection, vehicle: Klucel (hydroxypropylcellulose) (HPC)); 175 % of control (dose: 51.8 mg/kg/injection, vehicle: Klucel (hydroxypropylcellulose) (HPC)); 193 % of control (dose: 86.4 mg/kg/injection, vehicle: Klucel (hydroxypropylcellulose) (HPC)); 193 % of control under setting [4]; 262 % of control (dose: 144.0 mg/kg/injection, vehicle: Klucel (hydroxypropylcellulose) (HPC)); 220 % of control and 237 % of control (dose: 240.0 mg/kg/injection, vehicle: Klucel (hydroxypropylcellulose) (HPC)).

Regarding `COc1ccc(N=N/N=c2\sc3cc(OC)ccc3n2C)cc1`, the T/C by setting is: (dose: 15.0 mg/kg/injection, vehicle: saline with Tween-80) 121 % of control; (dose: 30.0 mg/kg/injection, vehicle: saline with Tween-80) 117 % of control; (dose: 120.0 mg/kg/injection, vehicle: saline with Tween-80) 121 % of control.

Take `COc1ccc2c(ccc3oc([N+](=O)[O-])cc32)c1`: the T/C runs as follows: under setting [2], 121 % of control; under setting [4], 170 % of control; (dose: 400.0 mg/kg/injection, vehicle: Klucel (hydroxypropylcellulose) (HPC)) 86 % of control.

On to `COc1cc(NS(C)(=O)=O)ccc1Nc1c2ccccc2nc2ccccc12`, for which the T/C was 117 % of control (dose: 2.5 mg/kg/injection, vehicle: other) and 122 % of control (dose: 5.0 mg/kg/injection, vehicle: other).

As for `CC(CNC(=O)C12CC3CC(CC(C3)C1)C2)NC(=O)C12CC3CC(CC(C3)C1)C2` (stereo not drawn), the T/C reads like this: (dose: 25.0 mg/kg/injection, vehicle: DMSO) 101 % of control; (dose: 50.0 mg/kg/injection, vehicle: DMSO) 107 % of control; (dose: 100.0 mg/kg/injection, vehicle: DMSO) 101 % of control; (dose: 200.0 mg/kg/injection, vehicle: DMSO) 102 % of control.

These data come from PubChem BioAssay AID280 (DTP/NCI, 2004).
